Measurements published in patent EP4617273A1, “FUSED TRICYCLIC PARP1 INHIBITOR, PREPARATION METHOD THEREFOR, AND USE THEREOF” (Haihe Biopharma Co., Ltd., priority 2022, dated 2024).

Assays:
[1] = target: T1, recombinant human PARP2 protein (Homo sapiens, UniProt Q9UGN5); experiment: PARP2 enzymatic inhibitory activity, histone substrate, chemiluminescent ELISA; assay type: biochemical; conditions: histone substrate, 500 µM NAD+ not added; read-out: PARP2 IC50
T1 construct: purchased BPS 80502
Method: The PARP2 inhibitory activity assay was performed as in Experimental Method 1, except that PARP1 solution in step 2 of "3. Ribosylation reaction" was replaced with recombinant human PARP2 solution, and 500 µM NAD+ was not added in step 5 of the ribosylation reaction. Table 1. IC50 for inhibition of PARP1/2 enzymes by compounds of the present invention

MDA-MB-436 cells = experiment: MDA-MB-436 cell proliferation inhibition test (CellTiter-Glo, 7 days); assay type: cell-based; conditions: Homo sapiens, MDA-MB-436, 168 h, 7 days incubation
Method: Human breast cancer MDA-MB-436 (purchased from ATCC) cells were cultured in DMEM medium (supplemented with 10% fetal bovine serum with 1% dual antibody) at 37 °C, 5% CO2. The cells were taken from the logarithmic growth phase, digested and prepare cell suspension witha certain concentration, which was inoculated into 96-well plates. 100 µL of cell suspension was added to each well of the 96-well plates, incubated overnight, then different concentrations of compounds were added, and the cells were incubated in the cell culture incubator for 7 days. At the end of incubation, 50 µL of CellTiter-Glo reagent was added to each well, mixed with a microplate and shaked for 2 min, and left at rt for 60 min, then the fluorescence value was read with a Spark® multimode microplate reader. […] Table 2. proliferation inhibitory activity of compounds of the present invention on MDA-MB-436 cells

MDR1 (P-gp) = experiment: MDR1-MDCK II cell model of bidirectional permeability; assay type: in vitro ADME; conditions: dog, Efflux Ratio = Papp (B-A) / Papp (A-B), read-out: ER ratio
Method: (§1) 2 µM of the test compound was added to the wells at the apical side or the basolateral side of the monolayer of cells and incubated for 2.5 h at 37.0°C in a 5.0% CO2 incubator. Cell monolayer integrity was determined by Lucifer yellowrejection assay. The buffer was removed from the apical side and basolateral side, and the concentration of the subject compounds was determined using LC-MS/MS. The concentration data were used to calculate the apparent permeabilitycoefficients of apical-to-basolateral (A-B) and basolateral-to-apical (B-A)side, and to calculate efflux ratio with the formula: Efflux Ratio = Papp (B-A) / Papp (A-B) Table 3. bidirectional permeability of MDR1-MDCK II cells for compounds of the present invention

MDR1 = experiment: as above; assay type: in vitro ADME; conditions: dog, 2 µM, 2.5 h
Method: as §1

[2] = Preliminary pharmacokinetic test in mice; assay type: in vivo; conditions: male, ICR
Method: 1. Healthy ICR mice were administered the tested compounds intravenously (1 mg/kg) or by gavage (5 mg/kg). Nine male mice weighing 30-35 g for each route of administration were randomly divided into three groups of three mice each.
The mice were fasted for 12h before the test and allowed to drink water freely. The mice were fed 4h after the administration.
Intravenous and gavage administration: 0.25h, 0.5h, 1.0h, 2.0h, 3.0h, 4.0h, 6.0h, 8.0h and 24h after administration.
Blood was collected continuously, and 3 animals were collected at each time point. Plasma collection and processing: 30-40 µL of venous blood was collected from the mouse retroorbital venous plexus at the above set time points, placed in an EDTA-K2 test tube, centrifuged at 3500 rpm for 10 min, and plasma was separated and frozen in a -20 °C refrigerator.
The concentration of the compounds in mouse plasma was determined by LC/MS/MS. Pharmacokinetic parameters after administration were calculated using the […] of Phoenix 8.3 software (Pharsight, USA).

[3] = target: T2, Recombinant human PARP1 protein (Homo sapiens, UniProt P09874); experiment: biochemical
Method: (§2) The PARP1/2 inhibitory activity of the compounds of the present invention was tested in an assay using Histone as a substrate.
(§3) Aim of the assay: to test the PARP1/2 enzymatic activity inhibition IC50 values of the compounds of the present application according to established experimental methods.
(§4) 1. Compound Configuration: Dilute the compounds with DMSO in 384-well plates to a 1000-fold final concentration and set aside.
(§5) 1) Dilute Histone with PBS, add 25uL of Histone mixture to each well and incubate for 2 h. 2) Wash each well 5 times using PBST solution. Remove the solution with a clean paper towel.3) Add 75 uL of Blocking buffer to each well and incubate for 1 h at rt. 4) Wash each well 5 times using PBST solution. Remove the solution with a clean paper towel.
(§6) 2) Use 1× Assay buffer to prepare 2.5× final concentration of PARP1 solution. 3) Add 10 uL of enzyme solution to the compound wells and Max control wells; add 10 uL of 1× Assay buffer. […] 6) Centrifuge at 1000 rpm for 60 seconds and incubate at rt for 2 h. 7) Each well was washed 5 times with PBST solution. Remove the solution with a clean paper towel.
(§7) 1) Prepare Streptavidin-HRP solution, add 25 µL to each well, centrifuge at 1000 rpm for 60 sec, and incubate at rt for 30 min. 2) Wash each well 5 times using PBST solution. Remove the solution with a clean paper towel. 3) Add 50 µL of ELISA Chemiluminescent Substrate per well. 4) Centrifuge at 1000 rpm for 60 seconds and read with EnSight after 5 min.
(§8) The inhibition rate was calculated using the following formula: % inhibition = (max signal - compound signal) / (max signal - min signal) × 100, where 'min signal' is the mean value of negative control wells and 'max signal' is the mean value of positive control wells.
(§9) Fitting the quantitative effect curve: using the log value of the concentration as the X-axis and the percentage inhibition as the Y-axis; using the log(inhibitor) vs. response-variable slope method in software GraphPadPrism5 to fit the quantitative effect curve to calculate the IC50 value for the inhibition of the enzyme activity by the compounds of the present invention. The fitting formula is: Y=Bottom+ (Top-Bottom)/(1+10^((logIC50-X)*HillSlope)).

[4] = target: T2, Recombinant human PARP1 protein; experiment: PARP1 enzymatic inhibitory activity, histone substrate, chemiluminescent ELISA; conditions: PARP2 IC50 over PARP1 IC50
Method: as §2, §3, §4, §5, §6, §7, §8, §9

T2 sequence (P09874 whole entry): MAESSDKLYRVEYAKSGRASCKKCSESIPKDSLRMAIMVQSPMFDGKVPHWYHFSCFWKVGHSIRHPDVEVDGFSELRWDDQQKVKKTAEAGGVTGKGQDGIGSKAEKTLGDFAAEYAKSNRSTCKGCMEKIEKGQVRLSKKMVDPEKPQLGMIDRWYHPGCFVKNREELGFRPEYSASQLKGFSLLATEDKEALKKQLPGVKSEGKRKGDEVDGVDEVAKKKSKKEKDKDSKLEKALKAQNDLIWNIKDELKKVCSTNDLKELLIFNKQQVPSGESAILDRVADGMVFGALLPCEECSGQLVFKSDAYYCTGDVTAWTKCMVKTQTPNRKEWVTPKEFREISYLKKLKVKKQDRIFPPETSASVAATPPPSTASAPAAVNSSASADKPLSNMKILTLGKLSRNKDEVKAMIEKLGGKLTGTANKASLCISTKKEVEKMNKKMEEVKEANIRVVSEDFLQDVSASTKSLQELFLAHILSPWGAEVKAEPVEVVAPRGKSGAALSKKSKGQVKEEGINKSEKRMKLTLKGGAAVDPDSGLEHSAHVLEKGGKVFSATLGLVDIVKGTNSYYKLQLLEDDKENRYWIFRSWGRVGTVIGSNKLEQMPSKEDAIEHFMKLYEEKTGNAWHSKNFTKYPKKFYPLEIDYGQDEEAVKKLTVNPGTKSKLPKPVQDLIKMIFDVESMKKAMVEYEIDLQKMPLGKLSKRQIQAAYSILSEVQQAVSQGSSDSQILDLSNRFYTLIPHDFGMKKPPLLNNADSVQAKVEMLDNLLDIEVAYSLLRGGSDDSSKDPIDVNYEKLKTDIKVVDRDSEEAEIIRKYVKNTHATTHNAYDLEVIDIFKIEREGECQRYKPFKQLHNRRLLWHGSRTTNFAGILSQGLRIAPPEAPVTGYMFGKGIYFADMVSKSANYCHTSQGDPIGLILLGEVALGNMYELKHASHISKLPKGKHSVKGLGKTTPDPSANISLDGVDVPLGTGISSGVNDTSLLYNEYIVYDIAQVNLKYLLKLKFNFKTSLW
T1 sequence (Q9UGN5 whole entry): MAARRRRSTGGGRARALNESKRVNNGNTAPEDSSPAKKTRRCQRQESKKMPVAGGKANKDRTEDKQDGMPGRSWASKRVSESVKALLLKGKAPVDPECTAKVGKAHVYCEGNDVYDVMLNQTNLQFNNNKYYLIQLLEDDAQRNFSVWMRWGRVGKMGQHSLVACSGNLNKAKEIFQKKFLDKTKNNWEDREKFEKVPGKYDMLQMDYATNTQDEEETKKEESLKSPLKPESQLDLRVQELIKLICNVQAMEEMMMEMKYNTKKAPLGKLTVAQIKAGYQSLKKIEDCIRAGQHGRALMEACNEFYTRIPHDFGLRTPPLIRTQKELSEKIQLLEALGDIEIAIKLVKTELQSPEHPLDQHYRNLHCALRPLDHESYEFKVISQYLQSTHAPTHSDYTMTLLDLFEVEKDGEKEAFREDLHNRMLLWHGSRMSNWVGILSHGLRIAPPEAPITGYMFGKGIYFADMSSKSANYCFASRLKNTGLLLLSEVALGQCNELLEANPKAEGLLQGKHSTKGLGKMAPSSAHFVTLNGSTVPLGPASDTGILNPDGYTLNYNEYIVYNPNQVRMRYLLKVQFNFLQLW

## CNC(=O)c1ccc(N2CCN(Cc3ccc4c(c3F)NC(=O)N3C[C@@H](C)N=C43)CC2)c(F)n1 [Compound 132]
[1]
  IC50: 288 nM
MDA-MB-436 cells
  IC50: 12.1 nM
MDR1 (P-gp)
  efflux ratio at 2.5 h, 2 µM: 2.1
MDR1; apical-to-basolateral
  Papp A→B at 2.5 h, 2 µM: 12.8 ×10⁻⁶ cm/s
MDR1; basolateral-to-apical
  Papp B→A at 2.5 h, 2 µM: 26.8 ×10⁻⁶ cm/s
[2]; iv, mouse plasma, i.v. 1 mg/kg
  AUC(0-t): 6630 ng·h/mL
  clearance: 2.8 mL/min/kg
  half-life: 180 min
[2]; plasma, oral, mouse, p.o. 5 mg/kg versus i.v. 1 mg/kg
  bioavailability: 98.7%
[2]; po, mouse plasma, p.o. 5 mg/kg
  AUC(0-t): 33100 ng·h/mL
  half-life: 264 min
[3]
  IC50: 1.5 nM
[4]
  PARP1/2 Fold selectivity: 191.8
